The values below come from ChEMBL document CHEMBL1157539, “Thousands of chemical starting points for antimalarial lead identification” (Nature, 2010).

For this assay, the system named is Plasmodium falciparum. Nature of the assay: GSK_TCMDC: Inhibition of Plasmodium falciparum 3D7 in whole erythrocytes, using parasite LDH activity as an index of growth. Format: functional, organism-based. The note with it: Plasmodium falciparum, 3D7.
Consider `COc1cc(-c2ccccc2)ccc1C(=O)Nc1ccc2c(c1)N(C)CCC2`, for which the XC50 is 325 nM.

Turning to `CCc1cc2c3c(N)nc(N)nc3ccc2n1C(CC)CC`, the XC50 came to 63.7 nM.

`COc1cc(Cn2ccc3c4c(N)nc(N)nc4ccc32)cc(OC)c1OC` came in with an XC50 of 9.34 nM.

As to `CCNCc1ccc(-c2cc3ncnc(Nc4ccc(OCc5cccc(F)c5)c(Cl)c4)c3s2)[nH]1`, the XC50 was 109 nM.

`COc1ccc(CNCc2ccc(-c3ccc(-c4nc5cc(C(F)(F)F)ccc5[nH]4)s3)cc2)cc1`: the XC50 worked out at 174 nM.

Turning to `Cc1cc(NC(=O)Nc2cccc(N(C)C)c2)c2ccccc2n1`, the XC50 came to 201 nM.

For `Oc1ccc(CN2CCC(NCc3cccc4ccccc34)CC2)cc1`, the XC50 amounted to 1200 nM.

`COc1ccc(NC(=O)Nc2ccc(Nc3nc(C)cc(N(C)C)n3)cc2)cc1`: the XC50 is 454 nM.

Compound `Nc1ccc(-c2ccc(NC(=O)Nc3cc(C(F)(F)F)ccc3F)cc2)cn1` came in with an XC50 of 657 nM.

With `Cc1ccc(NC(=O)c2cc(Br)cc(N3CCCN(C)CC3)c2)cc1F`, the XC50 came out at 1340 nM.

In the case of `CCCC1N=C(N)N=C(N)N1c1cccc([N+](=O)[O-])c1` (stereo not drawn), the XC50 amounted to 760 nM.

`Cn1cc(CN2CCCC(COC(c3ccccc3)c3ccccc3)C2)cn1` (stereo not drawn) showed an XC50 of 775 nM.

For `COc1ccc2nccc([C@@H](O)CN3CCC(NC(=O)/C=C/c4cc(F)cc(NC(C)=O)c4)CC3)c2c1`, the XC50 was found to be 183 nM.

The compound `CCOC(=O)C(C)(C)Oc1ccc(C(=C2CC(C)(C)CC(C)(C)C2)c2ccc(O)cc2)cc1` returned an XC50 of 1130 nM.

The compound `CC(CCc1ccccc1)NCC(O)c1cccc([N+](=O)[O-])c1` (stereo not drawn) had an XC50 of 858 nM.

In turn, `O=C(NCCc1ccc(Cl)c(Cl)c1)[C@@H]1CCCN1C(=O)c1ccc(O)c(-c2cccc(C(F)(F)F)c2)c1` came in with an XC50 of 825 nM.

With `O=C(NCCc1ccccc1)c1cc(-c2cccnc2)cnc1NCC1CC1`, the XC50 stood at 847 nM.

The compound `O=c1cc(NCCCNCc2cc(Cl)c(Cl)cc2Cl)[nH]c2ccccc12` registered an XC50 of 966 nM.

In turn, `CNCCN(C)C(=O)Oc1c(Cl)c(C)nc(C)c1-c1ccc(Oc2ccc(OC(F)(F)F)cc2)cc1` returned an XC50 of 127 nM.

`O=S(=O)(NCCN1CCCC1)c1cccc(-c2ccccc2CNC2Cc3ccccc3C2)c1` yielded an XC50 of 738 nM.

Take `COc1ccc2ncc(F)c(CCN3CC[C@@H](CNCc4cc(C)c5c(c4)OCCO5)C3)c2n1`: the XC50 turned out to be 890 nM.

Turning to `O=C(Nc1ccc(C(F)(F)F)cc1)c1ccc(S(=O)(=O)NC2CCN(CC3CCCCC3)C2)cc1` (stereo not drawn), the XC50 came to 723 nM.

The compound `COc1ccc(CCN(C)CCOc2ccc(NC(=O)c3cc(SC)cc4c(=O)c5ccccc5[nH]c34)cc2)cc1OC` displayed an XC50 of 1400 nM.

As for `COc1ccc(CCN(Cc2cccs2)C(=O)c2cc3sccc3n2C)cc1OC`, the XC50 was found to be 349 nM.

`COCCNCc1ccc(-c2ccc3c(Nc4ccc(F)cc4Cl)ccnc3c2)o1` yielded an XC50 of 209 nM.

`N=C(N)NN=CC(=O)Nc1ccc(C(F)(F)F)cc1` had an XC50 of 932 nM.

Compound `CCCC1(NC[C@@H](O)[C@H](Cc2ccccc2)NC(=O)c2cc(NCC)cc(N3CCCCS3(=O)=O)c2)CCC1` showed an XC50 of 720 nM.

`Nc1nc(N)c2c(ccc3c2ccn3CCCF)n1` registered an XC50 of 149 nM.

Consider `Oc1ccc(CN2CCN(CCOC(c3ccccc3)c3ccccc3)CC2)cc1Cl`, for which the XC50 was 806 nM.

For the compound `CCNc1cc(C(=O)N[C@@H](Cc2ccc(F)c(F)c2)[C@H](O)CNCc2cccc(OC)c2)cc(N2CCCCS2(=O)=O)c1`, the XC50 was determined as 749 nM.

For `CCCCCN1CCCN(Cc2cccc(NC(=O)c3ccc4ccccc4c3)c2)CC1`, the XC50 turned out to be 1220 nM.

Take `O=C(Cc1ccc(NC(=O)c2ccc(O)c(-c3ccc(Cl)c(Cl)c3)c2)cc1)NCc1cccc(C(F)(F)F)c1`: the XC50 is 878 nM.

Regarding `CC(Cc1ccc(OCc2ccccc2)cc1)Nc1nc(O)c2ccccc2n1` (stereo not drawn), the XC50 is 568 nM.

Compound `Cc1ccc(C(=O)Nc2ccc(Nc3ccnc4cc(-c5ccncc5)ccc34)cc2O)cc1` displayed an XC50 of 929 nM.

As to `O=C(/C=C/c1ccc(Cl)c(Cl)c1)NCCCCCN1CCC(NC(=O)Nc2ccc([N+](=O)[O-])cc2)CC1`, the XC50 stood at 686 nM.

As to `CN(C)CC(=O)N(Cc1ccc(Cl)c(Cl)c1)Cc1csc(-c2ccc(CNCc3ccccc3)cc2)n1`, the XC50 was 1050 nM.

Take `COc1ccc2nc(NC(N)=NC(=O)Nc3ccccc3)nc(C)c2c1`: the XC50 was 1280 nM.

As for `O=C(NCCCNc1nc2ccccc2[nH]1)c1cccc(OC(F)(F)F)c1`, the XC50 worked out at 566 nM.

In the case of `COc1ccc(-c2ccc(NC(=O)c3cccs3)cc2)cc1CN1CCCN(C)CC1`, the XC50 was found to be 964 nM.

As for `COc1ccccc1N1CCN(CCCCNC(=O)c2ccc(NC(=O)c3cc4ccccc4o3)cc2)CC1`, the XC50 came out at 978 nM.

On to `CNCCNCc1cccc(-c2ccc(-c3nc4cc(C(F)(F)F)ccc4[nH]3)s2)c1`, for which the XC50 amounted to 823 nM.

On to `CCOc1ccc2c(=NN=Cc3ccccn3)cc(C)[nH]c2c1`, for which the XC50 is 862 nM.

Consider `COc1cccc(NC(=O)NC2CCN(CCCCCNC(=O)/C=C/c3ccc(Cl)c(Cl)c3)CC2)c1`, for which the XC50 stood at 777 nM.

Regarding `Cc1[nH]c2c(C)cc(NS(C)(=O)=O)cc2c1C1CCN(CC2CCN(C(=O)/C=C/c3ccc(Cl)c(Cl)c3)CC2)CC1`, the XC50 was determined as 241 nM.

The compound `O=C(/C=C/c1ccc(Cl)c(Cl)c1)NCCC(CN1CCC(c2c[nH]c3ccccc23)CC1)c1ccccc1` (stereo not drawn) came in with an XC50 of 570 nM.

The compound `Cc1[nH]c(C)c(-c2ccc(CCc3ccc(C(F)(F)F)cc3)nc2)c(=O)c1Cl` registered an XC50 of 88.1 nM.

`CN(C)C(=O)CN1CCN(c2ncnc(N3CCc4c([nH]c5ccccc45)[C@@H]3c3ccc4c(c3)CCO4)n2)CC1` had an XC50 of 871 nM.

Turning to `Cc1nc(C)c(-c2ccc(Oc3ccc(Cl)cc3Cl)cc2)c(O)c1Br`, the XC50 was 297 nM.

Take `COc1cc(C(=O)N2COCC(CCCN3CCC(N4CCCC4)CC3)(c3ccc(Cl)c(Cl)c3)C2)cc(OC)c1OC` (stereo not drawn): the XC50 came out at 785 nM.

With `O=C(NCCCCN1CCC(c2ccc3ccccc3c2O)CC1)c1ccc(-c2ccc(Cl)cc2)cc1`, the XC50 was determined as 181 nM.

As for `CCCN(CCC)CC(O)COc1ccccc1C(=O)Nc1ccccc1` (stereo not drawn), the XC50 is 799 nM.

Consider `Cc1cccc2nc(-c3cccc(-c4cccc(CN5CCN(c6ccncc6)CC5)c4)c3)[nH]c12`, for which the XC50 was 200 nM.

For the compound `O=C(Nc1cccc(C(F)(F)F)c1)c1cccc(S(=O)(=O)NCC2CCCN(CC3CCCCC3)C2)c1` (stereo not drawn), the XC50 was 880 nM.

On to `COc1ccc2cc(C(C)NC3CCN(c4cccc(NC(=O)c5ccncc5)c4)CC3)ccc2c1` (stereo not drawn), for which the XC50 worked out at 1550 nM.

On to `Cc1cc(N[C@@H](CC(C)C)C(=O)Nc2ccccc2)nc(NCC2CCCCC2)n1`, for which the XC50 was 874 nM.

Turning to `Oc1c(C(Nc2nc3ccccc3s2)c2ccc(OC(F)F)cc2)ccc2cccnc12` (stereo not drawn), the XC50 worked out at 571 nM.

For `Cc1cc(NC(=O)c2ccco2)ccc1OC1CCN(Cc2ccc(F)cc2)CC1`, the XC50 turned out to be 588 nM.

`NC1CCCN(Cc2cccc(-c3ccc(-c4nc5ccccc5[nH]4)s3)c2)C1` (stereo not drawn) gave an XC50 of 585 nM.

Turning to `CCCCCCOc1ccc(C(=O)NCCC2CCN(CCCCCNC(=O)C=Cc3ccc(Cl)c(Cl)c3)CC2)cc1`, the XC50 is 656 nM.

For `O=C(Nc1cccc(-c2nn3ncccc3c2-c2ccnc(Nc3cccc(C(F)(F)F)c3)n2)c1)c1c(F)cccc1F`, the XC50 was 648 nM.

`CCC(=O)NC(c1ccco1)c1cc(Cl)c2cccnc2c1O` (stereo not drawn): the XC50 came out at 875 nM.

On to `CNC(=O)c1nc(-c2ccccc2)[nH]c1NC(C)=O`, for which the XC50 was found to be 152 nM.

Turning to `Cc1ccc(Nc2ccnc(Nc3ccc(C)c(F)c3)n2)cc1O`, the XC50 amounted to 761 nM.

For `Cc1cccc2nc(-c3ccc(-c4cccc(NC(=O)Nc5cccc(C#N)c5)c4)cc3)[nH]c12`, the XC50 stood at 544 nM.

Compound `Cn1c(NC2CCN(CC3CCN(C(=O)/C=C/c4ccc(Cl)c(Cl)c4)CC3)CC2)nc2ccccc21` gave an XC50 of 148 nM.

Compound `O=C(CSc1nn(-c2ccccc2)c(=S)s1)c1c[nH]c2ccccc12` returned an XC50 of 1090 nM.

Compound `CO/C(=C\C=C\c1cc2cc(Cl)c(Cl)cc2[nH]1)C(=O)NCCCN1CCCC[C@@H]1C` showed an XC50 of 755 nM.

`O=C1Nc2cccc3c2C1(CCCCN1CC=C(c2c[nH]c4ncccc24)CC1)CCC3` (stereo not drawn) displayed an XC50 of 395 nM.

For the compound `N#Cc1ccc(N(CCOc2ccc3c(c2)CCC(=O)N3)Cc2ccccc2C(F)(F)F)cc1C(F)(F)F`, the XC50 turned out to be 763 nM.

In the case of `Cc1cc(N(C)C)nc(Nc2ccc(NC(=O)c3cccc(F)c3)cc2)n1`, the XC50 was determined as 998 nM.

`CC1(C)NC(N)=NC(=N)N1OCc1cccs1` registered an XC50 of 3.2 nM.

Turning to `CCCc1cc(O)c2c3c(c(=O)oc2c1)CN(C)CC3`, the XC50 is 873 nM.

Take `CCC[C@@H]([C@@H](CC(C)C)C(=O)N[C@H](C(=O)Nc1nccs1)C(C)(C)SCCNC(=O)OCC)N(O)C=O`: the XC50 amounted to 173 nM.

For the compound `C=CCC(C)n1ncc2c3c(N)nc(N)nc3ccc21` (stereo not drawn), the XC50 came to 50 nM.

`Cc1cccc2nc(-c3ccc(-c4cccc(CNCCNC(=O)c5ccnn5C)c4)s3)[nH]c12` had an XC50 of 216 nM.

The compound `CNCCNCc1ccc(-c2ccc(-c3nc4cc(F)ccc4[nH]3)cc2)cc1` showed an XC50 of 387 nM.

`Cc1cc(C(=O)Nc2ccc(-c3nc4ccccc4[nH]3)cc2)ccc1[N+](=O)[O-]` registered an XC50 of 671 nM.

Regarding `CCCNCc1ccc(-c2ccc(CNC3Cc4ccccc4C3)cc2)nc1`, the XC50 is 848 nM.

In the case of `COc1cc(-c2nc3ccc(N4CCN(C)CC4)cc3[nH]2)cc(OC)c1OC`, the XC50 is 1270 nM.

Take `CCCCCCn1c(Sc2ccc(C#N)c([N+](=O)[O-])c2)nnc1-c1cccs1`: the XC50 was 706 nM.

`COc1ccc(CN2CCN(CCOC(c3ccccc3)c3ccccc3)CC2)c(O)c1` had an XC50 of 1190 nM.

For `O=[N+]([O-])c1ccc(/C=N/Nc2cc(-c3ccccc3)nc3ccccc23)o1`, the XC50 was found to be 863 nM.

In turn, `O=C(/C=C/c1ccc(Cl)c(Cl)c1)NCCCCCN1CCC(NC(=O)Nc2ccc(C(F)(F)F)cc2)CC1` gave an XC50 of 750 nM.

With `O=C(C=Cc1cccc(F)c1)NC1CCC(CCN2CCc3ccc(-c4cnccn4)cc3CC2)CC1` (stereo not drawn), the XC50 turned out to be 454 nM.

Compound `COc1ccc(-c2cnc3[nH]cc(-c4ccc(C(=O)O)cc4)c3c2)cn1` came in with an XC50 of 541 nM.

The compound `CN1CCC(Oc2cc(NC(=O)Nc3ccc(-c4ccncc4)c(C(F)(F)F)c3)ccc2Cl)CC1` came in with an XC50 of 780 nM.

`CCCOc1cc(Cc2cnc(N)nc2N)cc(OC)c1OC` gave an XC50 of 1170 nM.

In the case of `CCCC(=O)c1cnc2cc(O)ccc2c1Nc1ccccc1C`, the XC50 was determined as 651 nM.
